According to paper doi:10.1101/2022.04.25.489410v1 (biorxiv, 2022):
One block for each compound: values may come before it.

Columns and labels:
Type in all cases: biochemical, uncultured bacterium
[1] = tested on: SN243; test: fluorescence, initial rates, Michaelis-Menten fit; conditions: 100 mM Tris pH 8.0, 150 mM NaCl, 25 °C
[2] = tested on: SN243; test: product inhibition of pNP-β-GlcA hydrolysis; conditions: 10 μM pNP-β-GlcA; 100 mM Tris pH 8.0, 150 mM NaCl, 25 °C
[3] = tested on: SN243; test: absorbance at […] nm, initial rates, Michaelis-Menten fit; conditions: 100 mM Tris pH 8.0, 150 mM NaCl, 25 °C

SMILES: O=C(O)[C@H]1O[C@@H](Oc2ccc([N+](=O)[O-])cc2)[C@H](O)[C@@H](O)[C@@H]1O [pNP-β-GlcA]
Km [3]: 0.0137 mM

SMILES: O=[N+]([O-])c1ccc(O[C@@H]2OC[C@@H](O)[C@H](O)[C@H]2O)cc1 [pNP-β-Xyl]
Km [3]: 23 ± 0.9 mM

More lines, now with the values ahead:

Km [1]: 0.008 mM
SMILES: O=C1OC2(c3ccc(O[C@@H]4O[C@H](C(=O)O)[C@@H](O)[C@H](O)[C@H]4O)cc3Oc3cc(O[C@@H]4O[C@H](C(=O)O)[C@@H](O)[C@H](O)[C@H]4O)ccc32)c2ccccc21 [FD-β-GlcA]

IC50 [2]: 179 µM
SMILES: O=C(O)[C@H]1OC(O)[C@H](O)[C@@H](O)[C@@H]1O (some centres unmarked) [GlcA]

Km [3]: 56.5 ± 4.1 mM
SMILES: O=[N+]([O-])c1ccc(O[C@@H]2O[C@H](CO)[C@@H](O)[C@H](O)[C@H]2O)cc1 [pNP-β-Glc]
